Assays:
[1] = target: Coagulation factor X (Homo sapiens, UniProt P00742); test: Inhibition of human factor 10a-mediated cleavage of synthetic substrate S-2222
[2] = test system: Plasma

Coagulation factor X, sequence (P00742 41-179 limits assumed): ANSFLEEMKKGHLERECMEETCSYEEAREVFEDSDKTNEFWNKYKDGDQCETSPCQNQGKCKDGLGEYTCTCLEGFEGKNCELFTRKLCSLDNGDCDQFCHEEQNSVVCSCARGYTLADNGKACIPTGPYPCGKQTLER
Coagulation factor X, sequence (P00742 235-488 limits assumed): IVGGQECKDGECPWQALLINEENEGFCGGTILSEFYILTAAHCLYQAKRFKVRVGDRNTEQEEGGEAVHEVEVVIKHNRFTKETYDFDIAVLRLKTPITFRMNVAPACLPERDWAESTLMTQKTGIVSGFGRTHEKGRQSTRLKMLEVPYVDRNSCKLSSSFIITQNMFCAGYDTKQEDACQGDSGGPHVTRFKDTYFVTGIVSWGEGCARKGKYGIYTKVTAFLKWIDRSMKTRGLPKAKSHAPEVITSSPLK

IC50 [1] [nM]	Structure (SMILES)	EC [2] [µM]
30000	Cc1cc2cc(N=C(NC#N)N[C@@H]3CCN(CC(=O)N4CCCC4)C3=O)ccc2o1	
> 34000	Cc1cc2cc(N=C(NC#N)N[C@H]3CCCCN(CC(=O)N4CCCC4)C3=O)ccc2[nH]1	
84	N#C/N=C(\Nc1ccc2occc2c1)N[C@H]1CCCCN(CC(=O)N2CCCC2)C1=O	
349	Cc1oc2ccc(N=C(NC#N)N[C@H]3CCCCN(CC(=O)N4CCCC4)C3=O)cc2c1C	
195	Cc1cc2cc(N=C(NC#N)NC3CCCCCN(CC(=O)N4CCCC4)C3=O)ccc2o1 (racemic)	
1300	Cc1cc2ccc(N/C(=N\C#N)N[C@H]3CCCCN(CC(=O)N4CCCC4)C3=O)cc2[nH]1	
386	Cc1cc2cc(N/C(=N\C#N)N[C@H]3CCCCN(CC(=O)N4CCC[C@H]4CN)C3=O)ccc2o1	
2400	Cn1cc2cc(N/C(=N\C#N)N[C@H]3CCCCN(CC(=O)N4CCCC4)C3=O)ccc2n1	
11900	Cc1nc2ccc(N=C(NC#N)N[C@H]3CCCCN(CC(=O)N4CCCC4)C3=O)cc2[nH]1	
167	Cc1cc2cc(N/C(=N\C#N)N[C@H]3CCCCN(CC(=O)N4CCCC4)C3=O)cc(C(F)(F)F)c2o1	
14800	COc1cc(N=C(NC#N)N[C@H]2CCCCN(CC(=O)N3CCCC3)C2=O)cc2cc(C)oc12	
76	Cc1cc2cc(N=C(NC#N)N[C@H]3CCCCN(CC(=O)N4CCCC4)C3=O)c(F)cc2o1	
11	Cc1cc2cc(N/C(=N\C#N)N[C@H]3CCCCN(CC(=O)N4CCCC4)C3=O)cc(F)c2o1	
21	Cc1cc2cc(N=C(NC#N)N[C@H]3CCCCN(CC(=O)N4CCCC4)C3=O)cc(C)c2o1	
18800	Cc1nc2ccc(N/C(=N\C#N)N[C@H]3CCCCN(CC(=O)N4CCCC4)C3=O)cc2o1	
2730	Cc1cc2c(F)c(N/C(=N\C#N)N[C@H]3CCCCN(CC(=O)N4CCCC4)C3=O)ccc2o1	

Structure (SMILES)	IC50 [1] [nM]	EC [2] [µM]
Cc1cc2cc(N/C(=N\C#N)N[C@H]3CCCCN(CC(=O)N4CCCC4Cc4ccccc4)C3=O)ccc2o1 (stereo not given in full)	19	>50
Cc1cc2cc(N/C(=N\C#N)N[C@H]3CCCCN(CC(=O)N4CC5CC5C4)C3=O)ccc2o1 (stereo not given in full)	15	56

From ChEMBL document CHEMBL1152385, “Cyanoguanidine-based lactam derivatives as a novel class of orally bioavailable factor Xa inhibitors” (Bioorg Med Chem Lett, 2009)
